Assays:
IL-6 production = test: LPS-induced IL-6 production model test; type: in vivo, C57BL/6J mice; conditions: Mus musculus, 1 h; 10 mg/kg oral, 30 min before LPS 1 mg/kg i.p., serum IL-6 60 min after LPS, mice
Experimental: In order to evaluate the inhibitory activity of inflammatory cytokine production in the present compounds, LPS-induced IL-6 production model evaluation was carried out. The specific method is described below.
An appropriate amount of each compound was weighed, triturated with an agate mortar, and suspended or dissolved in 1% methyl cellulose solution to prepare 1 mg/mL solution.
C57BL/6J mice (male, Purchaser: Charles River Laboratories Japan, Inc.) were weighted, before divided into normal group, control group and each compound-administered group based on the measured body weight using a random number, wherein each group contained 6 samples. The mice were manually held in hands and forced orally administered the 1% methyl cellulose solution (normal and control group) or each administration solution comprising the compound (each compound-administered group) at a dose of 10 mL/kg into stomach using a feeding needle. After 30 minutes from administration of the 1% methyl cellulose solution or each compound administration solution, the mice were manually held in hands and intraperitoneally administered physiological saline (normal group) or LPS solution (control and each compound-administered group) at a dose of 1 mg/kg. After 60 minutes from administration of the LPS solution, whole blood was collected from the abdominal vena cava of each mouse under isoflurane inhalation anesthesia (available from Mylan Seiyaku Ltd.), and the mice were euthanized. The collected blood was allowed to stand at room temperature for one hour, and then centrifuged at 1,500 G for 10 minutes to collect a serum (supernatant). The collected serum was stored in a deep freezer set at −80° C. until the measurement of IL-6 in the serum. The IL-6 concentration in the serum of each mouse was measured by a commercially available kit (available from R&D systems, Cat No. M6000B), according to the protocol attached thereto.
The IL-6 production inhibition rate (%) was calculated by the following equation using Microsoft EXCEL 2010. IL-6 production inhibition rate (%)=100−{(average value of IL-6 concentration in serum of each compound-administered group)−(average value of IL-6 concentration in serum of normal group))/(average value of IL-6 concentration in serum of control group)−(average value of IL-6 concentration in serum of normal group)}×100

NF-κB = NF-κB reporter gene assay (TNF-α stimulated A549/NF-κB-luc cells); type: cell-based; conditions: Homo sapiens, TNF-α stimulation
Summary of the method: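 A549 cells stably carrying an NF-κB luciferase reporter were preincubated with compound for 1 h, then stimulated with TNF-α for 3 h. Luminescence was read with Steady-Glo, and inhibition was scaled between blank and DMSO control wells. IC50 was obtained by curve fitting.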

[1] = system: type II collagen-induced arthritis; test: Rat type II collagen-induced arthritis model evaluation test; type: in vivo, LEW/CrlCrlj rats; conditions: oral 6 mg/mL solution at 5 mL/kg once a day from Day 12, hind limb volume on Day 21, rats
Experimental: In order to evaluate the inhibitory action for autoimmune and inflammatory diseases of the present compounds, the evaluation of Rat type II collagen-induced arthritis model was carried out. The specific method is described below.
0.05 mol/L acetic acid was added to bovine type II collagen (Collagen Research Center, Cat No. K42) so that it became 2 mg/mL on the day before primary sensitization and secondary sensitization, and the mixture was allowed to stand overnight in a refrigerator to dissolve the material. Immediately before sensitization, it was mixed with an equal amount of Freund's incomplete adjuvant (available from Difco, Cat No. 263910) to prepare an emulsion for sensitization.
An appropriate amount of each compound was weighed, triturated with an agate mortar, and suspended or dissolved in 1% methyl cellulose solution to prepare 6 mg/mL solution.
LEW/CrlCrlj rats (female, purchased from Charles River Laboratories Japan, Inc.) were weighted on the day of primary sensitization (Day 0) and primary grouped to an arthritis non-induced group and an arthritis induced group based on the measured body weight using a random number. The rats (other than the arthritis non-induced group) were thereafter administrated the emulsion for sensitization ([…]) into the skin of the dorsum (divided into 5 portions) under general anesthesia with isoflurane inhalation (available from Mylan Seiyaku Ltd.). Seven days after the primary sensitization (Day 7), the rats (other than the arthritis non-induced group) were manually held in hands and administered the emulsion for sensitization (100 μL) into the skin of the tail. On Day 12, the rats developing arthritis were selected, a random number was used to avoid difference in an average hind limb volume between the groups, and the arthritis induced group was secondary grouped to a control group and each compound-administered group, wherein each group contained 8 samples. The rats were forced orally administered 1% methyl cellulose solution (arthritis non-induced group and control group) or each administration solution comprising the compound (each compound-administered group) at a dose of 5 mL/kg into stomach using a feeding needle once a day from Day 12. The volume of both hind limbs of each rat was measured using a plethysmometer (from Unicom) on Day 0, 4, 7, 12, 14, 18 and 21.
(Calculation of Limb Edema Suppression Rate) The limb edema suppression rate (%) was calculated by the following equation using Microsoft EXCEL 2010. Limb edema suppression rate (%)=100−{(average value of hind limb volume of each compound-administered group on Day 21)−(average value of hind limb volume of arthritis non-induced group on Day 21))/(average value of hind limb volume of control group on Day 21)−(average value of hind limb volume of arthritis non-induced group on Day 21)}×100

Compound	IC50 (NF-κB)	inhibition in vivo at 10 mg/kg (IL-6 production)	Limb edema suppression rate(%) [1]
Cc1sc2c(c1C)C(c1ccc(Cl)cc1)=NN(Cc1ccccn1)c1nnc(C)n1-2 [Example 5, 4-(4-chlorophenyl)-2,3,9-trimethyl-6-(pyridin-2-ylmethyl)-6H-thieno[2,3-e][1,2,4]triazolo[3,4-c][1,2,4]triazepine]	27.5 nM	77.5%	92.9%
Cc1sc2c(c1C)C(c1ccccc1)=NN(Cc1ccccn1)c1nnc(C)n1-2 [Example 31, 2,3,9-trimethyl-4-phenyl-6-(pyridin-2-ylmethyl)-6H-thieno[2,3-e][1,2,4]triazolo[3,4-c][1,2,4]triazepine]	150 nM	57.5%	68.9%
CC(=O)Nc1ccc(C2=NN(Cc3cccnc3)c3nnc(C)n3-c3sc(C)c(C)c32)cc1 [Example 71, N-(4-(2,3,9-trimethyl-6-(pyridin-3-ylmethyl)-6H-thieno[2,3-e][1,2,4]triazolo[3,4-c][1,2,4]triazepin-4-yl)phenyl)acetamide]	634 nM	79%	93.8%

More lines, main results first:

IC50 (NF-κB)	Compound	inhibition in vivo at 10 mg/kg (IL-6 production)	Limb edema suppression rate(%) [1]
106 nM	Cc1sc2c(c1C)C(c1ccc(Cl)cc1)=NN(Cc1cccnc1Cl)c1nnc(C)n1-2 [Example 38, 4-(4-chlorophenyl)-6-((2-chloropyridin-3-yl)methyl)-2,3,9-trimethyl-6H-thieno[2,3-e][1,2,4]triazolo[3,4-c][1,2,4]triazepine]	20.2%	11.9%
50.3 nM	Cc1sc2c(c1C)C(c1ccc(Cl)cc1)=NN(Cc1cccnc1F)c1nnc(C)n1-2 [Example 25, 4-(4-chlorophenyl)-6-((2-fluoropyridin-3-yl)methyl)-2,3,9-trimethyl-6H-thieno[2,3-e][1,2,4]triazolo[3,4-c][1,2,4]triazepine]	26.3%	39.8%
